± gives the expanded uncertainty stated by the source.
Legend:
[1] = Crystal; DTA
[2] = Molar enthalpy of transition or fusion; details: Crystal; DSC

Normal melting temperature [1]: 128.50 ± 0.7 °C | Molar enthalpy of transition or fusion [2]: 5.16 ± 0.263 kcal/mol
Structure (SMILES): C=CC(=O)NC(C)(C)C [N-tert-butylacrylamide]
